Source: patent US11191779B2, “Pharmaceutical composition for preventing or treating cancer, comprising tetraarsenic hexoxide crystalline polymorph” (CHEMAS CO., LTD., priority 2016, dated 2021)

What was measured:
[1] = system: various cancer cells, such as brain cancer, breast cancer, liver cancer, and skin cancer; test: Proliferation of other cancer cells (data not shown); format: cell-based
[2] = system: human cervical cancer cell line SiHa; test: MTT cell proliferation assay, cervical cancer cell line SiHa; format: cell-based; details: treatment for 72 hours, read-out: Cancer cell growth inhibition (IC50)
Excerpt: (§1) As human cancer cell lines, human lung cancer cell lines NCL-H226 and SK-MES-1, human esophageal cancer cell lines KYSE-150 and TE-1, human gastric cancer cell line AGS, human colorectal cancer cell lines HT29 and HCT116, human prostate cancer cell line PC-3, human pancreatic cancer cell lines BxPC-3 and PANC-1, human cervical cancer cell lines SiHa and HeLa, human ovarian cancer cell line SK-OV-3, and human endometrial cancer cell lines Ishikawa, HEC-1A, and HEC-1B were obtained from the Shanghai Cell Bank of Chinese Academy of Sciences. […]
(§2) The effects of Example 1 and Comparative Examples 1 to 3 on cell proliferation were assessed using MTT assay. […] All the crystals were completely dissolved by standing at room temperature for 15 minutes, and the absorbance was measured using a micro-plate reader at a wavelength of 570 nm (A570 nm).
(§3) The absorbance value of the control group treated without the sample was calculated as 100, and the absorbance value of the treatment group treated with the sample, compared with that of the control group, was calibrated, and the percentage of inhibition of cell proliferation was calculated according to the following equation. Percentage (%) of inhibition of cell proliferation=((mean absorbance of control group cells−mean absorbance of treatment group cells)/mean absorbance of control group cells)×100

[3] = system: human endometrial cancer cell line Ishikawa; test: MTT cell proliferation assay, endometrial cancer cell line Ishikawa; format: cell-based; details: treatment for 72 hours, read-out: Cancer cell growth inhibition (IC50)
Excerpt: as §1, §2, §3

[4] = system: human lung cancer cell line NCL-H226; test: MTT cell proliferation assay, lung cancer cell line NCL-H226; format: cell-based
Excerpt: as §1, §2, §3

[5] = system: human esophageal cancer cell line TE-1; test: MTT cell proliferation assay, esophageal cancer cell line TE-1; format: cell-based
Excerpt: as §1, §2, §3

[6] = system: human endometrial cancer cell line HEC-1B; test: MTT cell proliferation assay, endometrial cancer cell line HEC-1B; format: cell-based; details: treatment for 72 hours, read-out: Cancer cell growth inhibition (IC50)
Excerpt: as §1, §2, §3

[7] = system: human gastric cancer cell line AGS; test: MTT cell proliferation assay, gastric cancer cell line AGS; format: cell-based
Excerpt: As human cancer cell lines, human lung cancer cell lines NCL-H226 and SK-MES-1, human esophageal cancer cell lines KYSE-150 and TE-1, human gastric cancer cell line AGS, human colorectal cancer cell lines HT29 and HCT116, human prostate cancer cell line PC-3, human pancreatic cancer cell lines BxPC-3 and PANC-1, human cervical cancer cell lines SiHa and HeLa, human ovarian cancer cell line SK-OV-3, and human endometrial cancer cell lines Ishikawa, HEC-1A, and HEC-1B were obtained from the Shanghai Cell Bank of Chinese Academy of Sciences. The cells were incubated in media supplemented with 10% FBS, 50 U/ml penicillin, and 50 μg/ml streptomycin and suitable for incubation of respective cells (RPMI-1640 (NCL-H226, TE-1, BxPC-3, Ishikawa), MEM (SK-MES-1, SiHa, HeLa, HEC-1B), Ham's F-12K (AGS), Ham's F-12 (PC-3), McCOY's 5A (HT29, HCT116, SK-OV-3, HEC-1A), RPMI-1640:Ham's F-12=1:1(v:v) (KYSE-150), and DMEM (PANC-1)) in a humidified incubator with 5% CO2 and 95% air. The media were exchanged every three days.
as §2, with “assay. MTT assay is based on the ability of viable cells against MTT to produce insoluble dark blue formazan products.” for “assay.”
as §3

[8] = system: human lung cancer cell line SK-MES-1; test: MTT cell proliferation assay, lung cancer cell line SK-MES-1; format: cell-based
Excerpt: as §1, §2, §3

[9] = system: human prostate cancer cell line PC-3; test: MTT cell proliferation assay, prostate cancer cell line PC-3; format: cell-based; details: PC-3, treatment for 72 hours, read-out: Cancer cell growth inhibition (IC50)
Excerpt: as §1, §2, §3

[10] = system: human cervical cancer cell line HeLa; test: MTT cell proliferation assay, cervical cancer cell line HeLa; format: cell-based; details: treatment for 72 hours, read-out: Cancer cell growth inhibition (IC50)
Excerpt: as §1, §2, §3

[11] = system: human esophageal cancer cell line KYSE-150; test: MTT cell proliferation assay, esophageal cancer cell line KYSE-150; format: cell-based
Excerpt: as §1, §2, §3

[12] = system: human endometrial cancer cell line HEC-1A; test: MTT cell proliferation assay, endometrial cancer cell line HEC-1A; format: cell-based; details: treatment for 72 hours, read-out: Cancer cell growth inhibition (IC50)
Excerpt: as §1, §2, §3

[13] = system: human colorectal cancer cell line HT29; test: MTT cell proliferation assay, colorectal cancer cell line HT29; format: cell-based
Excerpt: as §1, §2, §3

[14] = system: human colorectal cancer cell line HCT116; test: MTT cell proliferation assay, colorectal cancer cell line HCT116; format: cell-based
Excerpt: as §1, §2, §3

[15] = system: human pancreatic cancer cell line PANC-1; test: MTT cell proliferation assay, pancreatic cancer cell line PANC-1; format: cell-based
Excerpt: as §1, §2, §3

[16] = system: human pancreatic cancer cell line BxPC-3; test: MTT cell proliferation assay, pancreatic cancer cell line BxPC-3; format: cell-based
Excerpt: as §1, §2, §3

[17] = system: human ovarian cancer cell line SK-OV-3; test: MTT cell proliferation assay, ovarian cancer cell line SK-OV-3; format: cell-based; details: SK-OV-3, treatment for 72 hours, read-out: Cancer cell growth inhibition (IC50)
Excerpt: as §1, §2, §3

[18] = system: uterine cancer, bladder cancer, lung cancer, maxillary sinus cancer, kidney cancer; details: end-stage cancer patients; cited from earlier work
cancer metastasis = details: animal experiments; cited from earlier work

O1[As]2O[As]3O[As]1O[As](O2)O3 [Example 1, tetraarsenic hexoxide]
inhibition of proliferation of various cancer cells [1]: confirmed to inhibit the proliferation
IC50 [2]: 2.8 µM
IC50 [3]: 2.75 µM
IC50 ([4]; Lung cancer, NCL-H226, treatment for 72 hours, read-out: Cancer cell growth inhibition (IC50)): 5.12 µM
percentage of inhibition of cell proliferation according to treatment time ([4]; NCL-H226, 10 μM, 24, 48, 72 hours (FIG. 3)): increased with the treatment time
IC50 ([5]; Esophageal cancer, TE-1, treatment for 72 hours, read-out: Cancer cell growth inhibition (IC50)): 2.35 µM
percentage of inhibition of cell proliferation according to treatment time ([5]; TE-1, 10 μM, 24, 48, 72 hours (FIG. 4A)): increased with the treatment time
IC50 [6]: 4.61 µM
IC50 ([7]; Gastric cancer, treatment for 72 hours, read-out: Cancer cell growth inhibition (IC50)): 0.9 µM
inhibition of cell proliferation according to treatment time and concentration ([7]; different concentrations, 24, 48, 72 hours (FIG. 5A)): increased with the treatment time at each treatment concentration
percentage of inhibition of gastric cancer cell proliferation at 48 hours ([7]; treatment for 48 hours (FIG. 5A)): high in spite of the treatment for only 48 hours
IC50 ([8]; Lung cancer, SK-MES-1, treatment for 72 hours, read-out: Cancer cell growth inhibition (IC50)): 2.47 µM
percentage of inhibition of cell proliferation according to treatment time ([8]; SK-MES-1, 10 μM, 24, 48, 72 hours (FIG. 3)): increased with the treatment time
IC50 [9]: 4.98 µM
IC50 [10]: 1.63 µM
IC50 ([11]; Esophageal cancer, KYSE-150, treatment for 72 hours, read-out: Cancer cell growth inhibition (IC50)): 9.85 µM
percentage of inhibition of cell proliferation according to treatment time ([11]; KYSE-150, 10 μM, 24, 48, 72 hours (FIG. 4A)): significantly increased in the treatment for 72 hours
IC50 [12]: 2.47 µM
IC50 ([13]; Colorectal cancer, HT29, treatment for 72 hours, read-out: Cancer cell growth inhibition (IC50)): 1.27 µM
percentage of inhibition of cell proliferation according to treatment time ([13]; HT29, 10 μM, 24, 48, 72 hours (FIG. 6A)): increased with the treatment time
IC50 ([14]; Colorectal cancer, HCT116, treatment for 72 hours, read-out: Cancer cell growth inhibition (IC50)): 5.07 µM
percentage of inhibition of cell proliferation according to treatment time ([14]; HCT116, 10 μM, 24, 48, 72 hours (FIG. 6A)): increased with the treatment time
percentage of inhibition of cell proliferation according to concentration ([15]; PANC-1, different concentrations, 72 hours (FIG. 8B)): increased dependent on the concentration of Example 1
IC50 ([15]; Pancreatic cancer, PANC-1, treatment for 72 hours, read-out: Cancer cell growth inhibition (IC50)): 5.62 µM
percentage of inhibition of cell proliferation according to concentration ([16]; BxPC-3, different concentrations, 72 hours (FIG. 8B)): increased dependent on the concentration of Example 1
IC50 ([16]; Pancreatic cancer, BxPC-3, treatment for 72 hours, read-out: Cancer cell growth inhibition (IC50)): 4.98 µM
IC50 [17]: 5.02 µM

O1[As]2O[As]3O[As]1O[As](O2)O3 [tetraarsenic hexoxide]
anticancer treatment effects [18]: had excellent anticancer treatment effects
cancer metastasis suppressing effects (cancer metastasis): showed cancer metastasis suppressing effects
